Consider 4 compounds from patent US20240041884A1, “Pharmaceutical Combinations for Treating Cancer” (Cellestia Biotech AG, priority 2020, published 2024).

The subject of one series is RPMI-8402 cells. The series can be described thus: Single agent screening, alamarBlue proliferation assay. As to conditions: Homo sapiens, RPMI-8402, 72 hours, read-out: IC50 (μM) values of drugs used as single agent. The class given is cell-based. Here is the method:
(§1) To determine effect of 6-(4-(tert-butyl)phenoxy)pyridin-3-amine with inhibitors of anti-apoptotic proteins, drugs listed in table 1 were used.
(§2) Cells were treated with each of the listed compounds in table 1 as single agent with a concentration ranging from 10 nM to 10 μM in duplicates. Following treatment for 72 hours, cells were incubated with alamarBlue® for 4 hours and cell proliferation readout was taken using Infinite® F500 (Tecan) plate reader. All volumes (cells and alamarBlue®) were dispensed using Multidrop Combi dispenser using a standard cassette (Speed MEDIUM).
(§3) AlamarBlue® viability assay: alamarBlue® proliferation assays were performed to determine the growth kinetics of compound treated cells. alamarBlue® consists of a cell permeable substrate resazurin. In metabolically active and proliferating cells, resazurin is converted to resorufin due to an intrinsic reducing power of live cells and produces a red fluorescence. Therefore, production of resorufin serves as an indicator of the viability of the cell population. Proliferation assays were performed by seeding 1500 cells/well in 384 well plate format. Cells were treated in duplicates with pre-determined concentration of compounds as a single agent or in combination with 6-(4-(tert-butyl)phenoxy)pyridin-3-amine for 72 hours. To determine growth kinetics, alamarBlue® (Invitrogen) was added to each well and incubated for 4 hours. alamarBlue® readout was taken using Infinite® F500 (Tecan) plate reader.
(§4) Data analysis for individual compounds: To determine anti-proliferative activity and IC50 values of individual compounds (listed in table 1) against HCC1187, MCF-7 and RPMI-8402 cells, data were analyzed using GraphPad Prism.

The subject of another series is MCF-7 cells. The series is described as above. The class given is cell-based. As to conditions: Homo sapiens, MCF7, MCF-7, 72 hours, read-out: IC50 (μM) values of drugs used as single agent. Here is the method:
as §1, §2, §3, §4

The test system of another series is HCC1187 cells. Described as above. In kind it is cell-based. The note with it: Homo sapiens, HCC1187, 72 hours, read-out: IC50 (μM) values of drugs used as single agent. Here is the method:
as §1, §2, §3, §4

Series [1] relates to ACC PDX (human adenoid cystic carcinoma patient-derived xenograft). The series can be described thus: In vivo efficacy in ACC PDX model, tumor growth inhibition. As to conditions: ACC PDX in athymic nude mice; for Percentange tumor growth inhibition (TGI): 6-(4-(tert-butyl)phenoxy)pyridin-3-amine 60 mg/kg SC qdx5, Navitoclax 50 mg/kg PO qdx5; for effect on ACC PDX tumor growth: doses of table 5, compared to vehicle. The source says: In Vivo Efficacy Evaluation of 6-(4-(tert-butyl)phenoxy)pyridin-3-amine and BCL-2 inhibitor ABT-263 (Navitoclax) in a NOTCH! and BCL-2 Positive Patient-Derived Xenograft (ACC PDX) Model Representing Human Adenoid Cystic Carcinoma in Immune-Deficient Mice
ACC PDX model was implanted into Immuno deficient mice and upon reaching a tumor volume of 150-300 mm^3, animals were randomized for treatment with different agents as indicated below.
Athymic mice transplanted with ACC PDX model were randomized into 4 treatment cohorts. Vehicle treatment • 2. 6-(4-(tert-butyl)phenoxy)pyridin-3 -amine • 3. ABT-263 • 4. 6-(4-(tert-butyl)phenoxy)pyridin-3-amine+ABT-263
Tumor volume was measured every 3-4 days. Mean tumor volume and SEM was calculated and Tumor growth inhibition was calculated using the formula TGI=1−(TXFavg−TXiavg)/(Cfavg−Ciavg), where TX is drug treatment group, favg=average tumor volume at treatment end, iavg=average tumor volume upon treatment initiation, C=Vehile treatment group.

The subject of series [2] is Primary human T cell acute lymphoblastic leukemia with activated NOTCH pathway. Description: Efficacy in mice bearing primary human T-ALL, survival. The class given is in vivo. The note with it: NSG mice; 6-(4-(tert-butyl)phenoxy)pyridin-3-amine 40 mg/kg QD5 until termination, Venetoclax 25 mg/kg QD for 7 days. Here is the method: Efficacy of 6-(4-(tert-butyl)phenoxy)pyridin-3-amine+Venetoclax combination Primary human T cell acute lymphoblastic leukemia with activated NOTCH pathway were intravenously infused into NSG mice. After 7 days of disease establishment, leukemia-bearing mice were treated as below: • 1. Group 1: Vehicle treatment • 2. Group 2: 6-(4-(tert-butyl)phenoxy)pyridin-3-amine treatment at 40 mg/kg, QD5 until termination of the group • 3. Group 3: Venetoclax treatment at 25 mg/kg, QD for 7 days only • 4. Group 4: Venetoclax at 25 mg/kg , QD for first 7 days+6-(4-(tert-butyl)phenoxy)pyridin-3-amine at 40 mg/kg, QD5 until termination of the group.
Animals were monitored for survival on a daily basis.

For a further series, the system named is blood cells. The series can be described thus: Safety evaluation in wildtype mice, whole blood analysis. In kind it is in vivo. As to conditions: 4 consecutive days, day 5 bleed, Venetoclax 12.5, 25, 50 mg/kg, 6-(4-(tert-butyl)phenoxy)pyridin-3-amine 60 mg/kg. Here is the method:
Wildtype mice were weighed and dosed for 4 consecutive days as below: • 1. Group 1: Vehicle+Vehicle • 2. Group 2: Vehicle+12.5 mg/kg Venetoclax • 3. Group 3: Vehicle+25 mg/k Venetoclax • 4. Group 4: Vehicle+50 mg/kg Venetoclax • 5. […] On day 5, animals were tail vein bled and whole blood analysis was carried out to determine numbers of different cells.

Take `Cc1c(-c2c(-c3ccc(F)o3)sc3ncnc(O[C@H](Cc4ccccc4OCc4ccnn4CC(F)(F)F)C(=O)O)c23)ccc(OCCN2CCN(C)CC2)c1Cl` (atropisomer, axis not shown) [S63845, (2R)-2-[5-[3-chloro-2-methyl-4-[2-(4-methylpiperazin-1-yl)ethoxy]phenyl]-6-(5-fluorofuran-2-yl)thieno[2,3-d]pyrimidin-4-yl]oxy-3-[2-[[2-(2,2,2-trifluoroethyl)pyrazol-3-yl]methoxy]phenyl]propanoic acid]: the IC50 – broadly, the concentration that inhibits the measured activity by half – in the series on RPMI-8402 cells was found to be 0.04 µM; in the series on MCF-7 cells it was 0.37 µM; with HCC1187 cells, 0.24 µM.

With `CC(C)(C)c1ccc(Oc2ccc(N)cn2)cc1` [6-(4-(tert-butyl)phenoxy)pyridin-3-amine], in series [1], the “Percentange tumor growth inhibition (TGI)” value turned out to be 37% and the “effect on ACC PDX tumor growth” value is “induces tumor growth retardation compared to vehicle treated group”. In series [2], the “Number of days by which 100% animals died due to leukemia” value is recorded as 30 days.

`CC1(C)CCC(c2ccc(Cl)cc2)=C(CN2CCN(c3ccc(C(=O)NS(=O)(=O)c4ccc(N[C@H](CCN5CCOCC5)CSc5ccccc5)c(S(=O)(=O)C(F)(F)F)c4)cc3)CC2)C1` [ABT-263 (Navitoclax), 4-[4-[[2-(4-chlorophenyl)-5,5-dimethylcydohexen-1-yl]methyl]piperazin-1-yl]-N-[4-[[(2R)-4-morpholin-4-yl-1-phenylsulfonylbutan-2-yl]amino]-3-(trifluoromethylsulfonyl)phenyl]sulfonylbenzamide]: the IC50 with RPMI-8402 cells was found to be 5.5 µM; in the series on MCF-7 cells, 21 µM; in the series on HCC1187 cells it was 20 µM. The “Percentange tumor growth inhibition (TGI)” value in series [1] was 57%. Also, the “effect on ACC PDX tumor growth” value in series [1] is recorded as “induces tumor growth retardation compared to vehicle treated group”.

As for `CC1(C)CCC(CN2CCN(c3ccc(C(=O)NS(=O)(=O)c4ccc(NCC5CCOCC5)c([N+](=O)[O-])c4)c(Oc4cnc5[nH]ccc5c4)c3)CC2)=C(c2ccc(Cl)cc2)C1` [Venetoclax, 4-[4-[[2-(4-chlorophenyl)-4,4-dimethylcydohexen-1-yl]methyl]piperazin-1-yl]-N-[3-nitro-4-(oxan-4-ylmethylamino)phenyl]sulfonyl-2-(1H-pyrrolo[2,3-b]pyridin-5-yloxy)benzamide], the “effect on blood cells (whole blood analysis)” value with blood cells was “decrease of white blood cells, lymphocytes, neutrophils, monocytes and mean platelet mass”. Also, in series [2], the “Number of days by which 100% animals died due to leukemia” value is recorded as 28 days.
